From patent US8440646B1 (priority 2006, dated 2013)
Converted amounts (≈) assume the structure as drawn. Like-named read-outs stand apart in the source and are kept apart here.

Experiments:
protein synthesis = details: cited from earlier work
S. aureus MRSA5 = assay: microbe, parasite or virus in culture; format: cell-based; details: Staphylococcus aureus
E. faecium 494 = assay: microbe, parasite or virus in culture; format: cell-based; details: Enterococcus faecium
S. pneumoniae 700905 [1] = assay: microbe, parasite or virus in culture; format: cell-based; details: Streptococcus pneumoniae
E. faecalis 29212 = assay: microbe, parasite or virus in culture; format: cell-based; details: Enterococcus faecalis
B. anthracis Vollum1B = assay: microbe, parasite or virus in culture; format: cell-based; details: Bacillus anthracis
B. anthracis Sterne = assay: microbe, parasite or virus in culture; format: cell-based; details: Bacillus anthracis
B. anthracis Ame = assay: microbe, parasite or virus in culture; format: cell-based; details: Bacillus anthracis
B. anthracis V770 = assay: microbe, parasite or virus in culture; format: cell-based; details: Bacillus anthracis
COS-1 = details: African green monkey
CHO-K1 = details: Chinese hamster
S. pneumoniae 157E [2] = assay: animal or person; format: in vivo, mice; details: Streptococcus pneumoniae, 157E, in Mus musculus, 48 h, read-out: % survival; for responders at 5 mg/kg: sc
S. pneumoniae 157E [3] = tested on: S. pneumoniae 157E; design: species or system mice; details: mouse, in vivo
S. pneumoniae 700905 [4] = tested on: S. pneumoniae 700905; design: species or system mice; details: mouse, in vivo
S. pneumoniae PBS1339 = tested on: S. pneumoniae PBS1339; design: species or system mice; details: mouse, in vivo, po
S. aureus RN450 = assay: microbe, parasite or virus in culture; format: cell-based; details: Staphylococcus aureus
[5] = tested on: Protein synthesis of S. aureus RN450; assay: microbe, parasite or virus in culture; format: cell-based; details: Staphylococcus aureus
[6] = tested on: Peptidoglycan synthesis of S. aureus RN450; assay: microbe, parasite or virus in culture; format: cell-based; details: Staphylococcus aureus
16S rRNA = details: cited from earlier work
B. cereus 98/2620 = assay: microbe, parasite or virus in culture; format: cell-based; details: Bacillus cereus
B. cereus 95/3032 = assay: microbe, parasite or virus in culture; format: cell-based; details: Bacillus cereus
B. cereus 98/2658 = assay: microbe, parasite or virus in culture; format: cell-based; details: Bacillus cereus
B. cereus 97/4144 = assay: microbe, parasite or virus in culture; format: cell-based; details: Bacillus cereus

SMILES | MIC (S. aureus MRSA5) [µg/mL] | MIC (E. faecium 494) [µg/mL] | MIC (S. pneumoniae 700905 [1]) [µg/mL] | MIC (E. faecalis 29212) [µg/mL] | MIC (B. anthracis Vollum1B) [µg/mL] | MIC (B. anthracis Sterne) [µg/mL] | MIC (B. anthracis Ame) [µg/mL] | MIC (B. anthracis V770) [µg/mL] | Tox50 (COS-1) [µg/mL] | Tox50 (CHO-K1) [µg/mL] | responders at 5 mg/kg (S. pneumoniae 157E [2]) [%] | other results
Cc1c2c(c(O)c3c(O)ccc(Cl)c13)C(=O)C1(O)C(=O)C(C(N)=O)=C(O)C(N(C)C)C1C2 (stereo not drawn) [4-epi-anhydrochlorotet] | – | – | – | – | – | – | – | – | – | – | – | inhibition of protein synthesis in words (protein synthesis): weak effects
CC(C)c1cc(CN2CC=CCC2)c(O)c2c1C[C@H]1C[C@H]3[C@H](N(C)C)C(O)=C(C(N)=O)C(=O)[C@@]3(O)C(O)=C1C2=O [AF] | 0.13 (≈ 0.236 µM) | 0.25 (≈ 0.453 µM) | 0.06 (≈ 0.109 µM) | 0.13 (≈ 0.236 µM) | < 0.03 | < 0.03 | < 0.03 | 0.06 (≈ 0.109 µM) | >100 | >100 | – | –
CN(C)c1cc(CN2Cc3ccccc3C2)c(O)c2c1C[C@H]1C[C@H]3[C@H](N(C)C)C(O)=C(C(N)=O)C(=O)[C@@]3(O)C(O)=C1C2=O [AI] | 0.5 (≈ 0.849 µM) | 0.5 (≈ 0.849 µM) | 0.06 (≈ 0.102 µM) | 0.5 (≈ 0.849 µM) | < 0.03 | < 0.03 | 0.06 (≈ 0.102 µM) | 0.12 (≈ 0.204 µM) | >100 | >100 | 40 | responders at 10 mg/kg (S. pneumoniae 157E [2]; po): 0%
CN(C)c1cc(CN2CCC3CCCCC3C2)c(O)c2c1C[C@H]1C[C@H]3[C@H](N(C)C)C(O)=C(C(N)=O)C(=O)[C@@]3(O)C(O)=C1C2=O (stereo partly drawn) [AJ] | 0.5 (≈ 0.821 µM) | 0.5 (≈ 0.821 µM) | 0.06 (≈ 0.0986 µM) | 0.5 (≈ 0.821 µM) | < 0.03 | < 0.03 | < 0.03 | < 0.03 | >100 | >100 | 100 | responders at 50 mg/kg (S. pneumoniae 157E [2]; po): 80%
COc1ccc(-c2cc(CNC(C)CF)c(O)c3c2C[C@H]2C[C@H]4[C@H](N(C)C)C(O)=C(C(N)=O)C(=O)[C@@]4(O)C(O)=C2C3=O)cn1 (stereo partly drawn) [AM] | 0.25 (≈ 0.409 µM) | 0.25 (≈ 0.409 µM) | 0.06 (≈ 0.0983 µM) | 0.13 (≈ 0.213 µM) | 0.06 (≈ 0.0983 µM) | 0.06 (≈ 0.0983 µM) | 0.06 (≈ 0.0983 µM) | 0.12 (≈ 0.197 µM) | >100 | 92.85 | 100 | responders at 50 mg/kg (S. pneumoniae 157E [2]; po): 0%
CC1(C)S[C@@H]2[C@H](NC(=O)[C@H](N)c3ccccc3)C(=O)N2[C@H]1C(=O)O [Ampicillin, reference compound] | – | – | – | – | – | – | – | – | – | – | – | PD50 (S. pneumoniae 157E [3]; iv): 0.6 mg/kg; PD50 (S. pneumoniae 157E [3]; po): 1.1 mg/kg; PD50 (S. pneumoniae 700905 [4]; iv): 43.7 mg/kg; PD50 (S. pneumoniae 700905 [4]; po): >50 mg/kg; PD50 (S. pneumoniae PBS1339): 3.2 mg/kg
Cc1c2c(c(O)c3c(O)cccc13)C(=O)[C@]1(O)C(=O)C(C(N)=O)=C(O)[C@@H](N(C)C)[C@@H]1C2 [Anhydro-tetracycline, anhydrotetracycline, reference compound] | – | – | – | – | – | – | – | – | – | – | – | MIC (S. aureus RN450): 2 µg/mL (≈ 4.69 µM); IC50 ([5]; read-out: Protein synthesis IC50): < 0.03 µg/mL; IC90 ([5]; read-out: Protein synthesis IC90): < 0.03 µg/mL; IC50 ([6]; read-out: Peptidoglycan synthesis IC50): 19.2 µg/mL (≈ 45 µM); IC90 ([6]; read-out: Peptidoglycan synthesis IC90): > 32 µg/mL; inhibition of protein synthesis in words (protein synthesis): weak effects; effect on reactivity of nucleotides within the 16S rRNA (chemical footprint) (16S rRNA): A similar effect was not seen
CO/N=C(\C(=O)N[C@@H]1C(=O)N2C(C(=O)O)=C(COC(C)=O)CS[C@H]12)c1csc(N)n1 [Cefotaxime] | – | – | – | – | – | – | – | – | – | – | – | MIC (B. cereus 98/2620): 64 µg/mL (≈ 141 µM); MIC (B. cereus 95/3032): > 64 µg/mL; MIC (B. cereus 98/2658): > 64 µg/mL; MIC (B. cereus 97/4144): 32 µg/mL (≈ 70.3 µM)
